Reference: the NIST ThermoML archive (doi:10.1016/j.jct.2004.09.018)

Assays:
[1] = Molar enthalpy of transition or fusion; settings: Crystal
[2] = Crystal
[3] = molar heat capacity at constant pressure; settings: 101.33 kPa

O=Cc1ccc([N+](=O)[O-])cc1[N+](=O)[O-] [2,4-dinitrobenzaldehyde]
Settings	Molar enthalpy of transition or fusion [kcal/mol]	Triple point temperature [K]
[1]	5.06	–
[2]	–	344.91

[3]
Settings	molar heat capacity at constant pressure [J/K/mol]
78.06 K, Crystal	18.67
80 K, Crystal	19.77
80.91 K, Crystal	20.32
82.54 K, Crystal	21.07
85.26 K, Crystal	22.24
87.46 K, Crystal	22.9
89.5 K, Crystal	23.64
91.38 K, Crystal	24.46
93.21 K, Crystal	24.83
94.98 K, Crystal	25.29
96.7 K, Crystal	25.84
98.42 K, Crystal	26.88
100.08 K, Crystal	26.98
101.76 K, Crystal	28.11
103.39 K, Crystal	28.44
105 K, Crystal	28.62
106.58 K, Crystal	28.9
108.14 K, Crystal	29.07
109.68 K, Crystal	30.37
111.2 K, Crystal	30.49
112.69 K, Crystal	30.46
114.18 K, Crystal	31.08
115.64 K, Crystal	31.43
117.09 K, Crystal	32.01
118.49 K, Crystal	32.5
119.86 K, Crystal	32.88
121.24 K, Crystal	33.37
122.59 K, Crystal	33.47
123.93 K, Crystal	34.53
125.27 K, Crystal	34.53
126.61 K, Crystal	35.11
127.96 K, Crystal	35.79
129.3 K, Crystal	36.37
130.69 K, Crystal	36.18
132.09 K, Crystal	36.27
133.43 K, Crystal	37.34
134.81 K, Crystal	37.63
136.17 K, Crystal	37.14
137.59 K, Crystal	37.92
138.97 K, Crystal	37.37
140.34 K, Crystal	37.47
141.69 K, Crystal	37.08
143.04 K, Crystal	37.04
144.37 K, Crystal	37.54
145.68 K, Crystal	37.82
146.97 K, Crystal	37.82
148.25 K, Crystal	38.92
149.52 K, Crystal	39.16
150.78 K, Crystal	38.26
152.03 K, Crystal	39.82
153.25 K, Crystal	40.53
154.49 K, Crystal	40.73
155.72 K, Crystal	40.92
156.96 K, Crystal	41.6
158.19 K, Crystal	41.6
159.41 K, Crystal	42.39
160.67 K, Crystal	43.2
161.9 K, Crystal	43.2
163.15 K, Crystal	43.8
164.37 K, Crystal	44.11
165.6 K, Crystal	44.7
166.79 K, Crystal	45.28
167.97 K, Crystal	45.57
169.2 K, Crystal	45.95
171.64 K, Crystal	46.17
175.32 K, Crystal	46.7
178.53 K, Crystal	47.5
181.57 K, Crystal	47.76
184.51 K, Crystal	49.49
187.41 K, Crystal	49.49
190.27 K, Crystal	51.22
193.04 K, Crystal	52.12
195.57 K, Crystal	52.73
198.42 K, Crystal	54.38
201.09 K, Crystal	55.42
202.7 K, Crystal	55.05
206.17 K, Crystal	56.4
208.82 K, Crystal	57.15
211.47 K, Crystal	56.9
214.01 K, Crystal	58.62
216.52 K, Crystal	60.85
219.02 K, Crystal	60.11
221.6 K, Crystal	60.6
224.29 K, Crystal	61.84
226.79 K, Crystal	62.82
229.3 K, Crystal	62.82
231.81 K, Crystal	64.06
234.37 K, Crystal	65.17
236.8 K, Crystal	66.36
239.16 K, Crystal	67.38
241.63 K, Crystal	68.9
243.96 K, Crystal	70.6
246.15 K, Crystal	72.46
248.51 K, Crystal	72.63
250.87 K, Crystal	73.64
253.13 K, Crystal	75.85
255.45 K, Crystal	78.05
257.75 K, Crystal	79.41
260 K, Crystal	80.42
262.29 K, Crystal	81.1
265.37 K, Crystal	83.47
266.84 K, Crystal	84.66
269.06 K, Crystal	86.52
271.28 K, Crystal	88.55
273.5 K, Crystal	90.93
275.72 K, Crystal	93.3
277.9 K, Crystal	94.99
280.12 K, Crystal	96.35
282.24 K, Crystal	98.88
284.45 K, Crystal	100.75
286.53 K, Crystal	101.94
288.75 K, Crystal	103.12
290.86 K, Crystal	105.15
293.05 K, Crystal	105.66
295.09 K, Crystal	108.2
297.17 K, Crystal	110.92
299.24 K, Crystal	112.78
301.25 K, Crystal	116
303.25 K, Crystal	118.56
305.33 K, Crystal	120.3
307.3 K, Crystal	122.62
309.27 K, Crystal	124.17
311.25 K, Crystal	125.72
313.22 K, Crystal	128.04
315.24 K, Crystal	130.3
317.17 K, Crystal	132.69
319.12 K, Crystal	135.33
321.07 K, Crystal	136.59
322.98 K, Crystal	138.88
324.91 K, Crystal	141.63
326.82 K, Crystal	144.41
328.67 K, Crystal	147.92
330.55 K, Crystal	151.7
332.43 K, Crystal	154.77
334.19 K, Crystal	158.54
335.92 K, Crystal	161.76
337.65 K, Crystal	165.54
339.38 K, Crystal	169.32
341.03 K, Crystal	173.09
348.1 K, Liquid	300.29
349.69 K, Liquid	307.08
351.29 K, Liquid	313.48
352.84 K, Liquid	317.48
354.37 K, Liquid	327.47
355.87 K, Liquid	334.28
357.34 K, Liquid	342.27
358.75 K, Liquid	344.27
360.22 K, Liquid	349.07
361.51 K, Liquid	354.26
362.75 K, Liquid	357.86
363.93 K, Liquid	367.87
365.07 K, Liquid	373.86
366.13 K, Liquid	381.06
367.12 K, Liquid	389.86
